Results from patent publication US6562865B1, “Composition comprising a tramadol material and an anticonvulsant drug” (Ortho-McNeil Pharmaceutical, Inc., priority 1999, dated 2003).
Read-outs that look alike come from different tables or passages of the source.

Columns and labels:
[1] = system: mechanical (tactile) allodynia in Chung Model rats; experiment: Antiallodynic effect in the Chung Model (L5 spinal nerve ligation, paw withdrawal threshold with von Frey filaments); conditions: for ED50: Rattus norvegicus, po, read-out: ED50 (SEM) of drug alone
Protocol: The antiallodynic effect of the composition of the present invention in the Chung Model is expressed in % MPE (Maximum Possible Effect).
Pathogen-free, male albino Sprague-Dawley rats, 200 g, were purchased from Harlan Industries (Indianapolis, Ind.) and maintained on a 12-h light/dark cycle (lights on at 06:00 h) in a climate-controlled room with food and water available ad libitum.
The rats were anesthetized with isoflurane inhalant anesthesia. The left lumbar spinal nerve at the level of L5 was tightly ligated (4-0 silk suture) distal to the dorsal root ganglion and prior to entrance into the sciatic nerve, as described by Kim and Chung. The incisions were closed and the rats were allowed to recover under conditions described above. This procedure results in mechanical allodynia in the left hind paw. The sham operation, when performed, consisted of a similar surgical procedure lacking only the final ligation of the spinal nerve. Mechanical (tactile) allodynia was assessed by recording the pressure at which the affected paw (ipsilateral to the site of nerve injury) was withdrawn from graded stimuli (von Frey filaments ranging from 4.0 to 148.1 mN) applied perpendicularly to the plantar surface of the paw (between the footpads) through wire-mesh observation cages. A paw withdrawal threshold (PWT) was determined by sequentially increasing and decreasing the stimulus strength and analyzing withdrawal data using a Dixon non-parametric test (Chaplan, et al). Normal rats, sham operated rats, and the contralateral paw of L5 ligated rats withstand at least 148.1 mN (equivalent to 15 g) of pressure without responding.
The dosing materials were all prepared in the vehicle, a suspension of 0.5% hydroxypropyl methylcellulose in distilled water; drug weights were calculated as the free base. The tramadol solution was prepared first, and the appropriate volume of this solution was added to a neat amount of the anticonvulsant to give the final dosing suspension. Drug weights were calculated as the free base, and the ratios used were based on the respective ED50 values of tramadol and the anticonvulsant. The necessary doses for each ratio were prepared separately and dosed orally in a volume of 10 mL/kg per rat.
The Chung Model rats were all dosed orally with the composition comprising a combination of tramadol hydrochloride (calculated as the base) and the anticonvulsant drug (calculated as the base) or the composition of each agent separately dissolved in distilled water or dissolved in a suspension of 0.5% hydroxypropyl methylcellulose in distilled water. The dosing volume was 10 mL/kg.
The rats were intubated with various doses of tramadol hydrochloride alone, anticonvulsant drug alone, combined doses of tramadol hydrochloride and anticonvulsant or vehicle such as distilled water or a suspension of 0.5% hydroxypropyl methylcellulose in distilled water.
Within a certain time after the oral administration of tramadol hydrochloride alone, the anticonvulsant drug alone, the composition comprising a combination of tramadol hydrochloride and the anticonvulsant drug or vehicle alone, the PWT test was commenced. Each rat was used in the evaluation of only a single dose-ratio.
The analysis of possible synergistic effect for the compositions at each fixed ratio was determined (R. J. Tallarida, et al., Life Sci., 1989, 45, 947). This procedure involves the determination of the total amount in the mixture that is required to produce a specified synergistic antiallodynic effect at the 50% dose level (that is, the ED50mix or Zmix) and the corresponding total amount that would be expected under simple additivity (ED50add or Zadd). Where it is established that Zmix<Zadd for a specific fixed-ratio, then that composition has a synergistic antiallodynic effect. Both the quantities ED50mix and ED50add are random variables.

[2] = system: hot plate latency response in mice; experiment: Antinociceptive effect in the 48° C. Mouse Hot Plate Model; assay type: in vivo; conditions: for % Maximal Possible Effect: 1.5 hours
Protocol: Mice were placed on a heated surface (48° C.) and the time interval (seconds) between placement and a shaking, licking, or tucking of the hind paw was recorded as the predrug latency response. This same procedure was repeated at various times after the test drug was administered p.o., 10 mL/kg.
The 48° C. Mouse Hot Plate was used to calculate the % maximal possible effect (% MPE) according to the formula: [formula]
The analysis of possible synergistic effect at each fixed ratio was determined as described by Tallarida, et al., above.

[3] = drug alone 30 mg/kg p.o., 1 hour
[4] = drug alone 50 mg/kg p.o., 2 hours
[5] = drug alone 60 mg/kg p.o., 1 hour
[6] = drug alone 75 mg/kg p.o., 2 hours
[7] = drug alone 90 mg/kg p.o., 1 hour
[8] = drug alone 100 mg/kg p.o., 2 hours
[9] = drug alone 125 mg/kg p.o., 2 hours
[10] = drug alone 150 mg/kg p.o., 2 hours
[11] = drug alone 250 mg/kg p.o., 2 hours
[12] = drug alone 500 mg/kg p.o., 2 hours
[13] = drug alone 25 mg/kg p.o., 2 hours

SMILES: COc1cccc(C2(O)CCCCC2CN(C)C)c1 (single isomer, unassigned) [Tramadol, (1R,2R or 1S,2S)-2-[(dimethylamino)methyl]-1-(3-methoxyphenyl)cyclohexanol]
- ED50 ([1]; 1 h): 48.6 mg/kg
- ED50 ([1]; 2 h): 94.5 mg/kg
- % MPE ([1]; drug alone 10 mg/kg p.o., 1 hour): 16.79 % MPE
- % MPE [1, 3]: 25.70 % MPE
- % MPE [1, 4]: 3.77 % MPE
- % MPE [1, 5]: 40.96 % MPE
- % MPE [1, 6]: 20.62 % MPE
- % MPE [1, 7]: 73.61 % MPE
- % MPE [1, 8]: 45.38 % MPE
- % MPE ([1]; drug alone 120 mg/kg p.o., 1 hour): 84.05 % MPE
- % MPE [1, 9]: 74.29 % MPE
- % MPE [1, 10]: 100 % MPE
- ED50 ([2]; Mus musculus, po, 1.5 h, p.o., 48° C. hot plate, read-out: ED50 (SEM) at 1.5 Hours): 35.1 mg/kg
- % Maximal Possible Effect ([2]; drug alone 10 mg/kg p.o.): 5.83%
- % Maximal Possible Effect ([2]; drug alone 30 mg/kg p.o.): 37.74%
- % Maximal Possible Effect ([2]; drug alone 100 mg/kg p.o.): 86.62%
- % Maximal Possible Effect ([2]; drug alone 300 mg/kg p.o.): 100%
- antinociceptive effect in dose-response study ([2]; p.o., 48° C. hot plate): dose-dependent antinociceptive effect
- antinociceptive effect at the higher doses ([2]; p.o., 48° C. hot plate, higher doses): Full antinociceptive effect

SMILES: NCC1(CC(=O)O)CCCCC1 [Gabapentin]
- ED50 ([1]; 2 h): 440 mg/kg
- % MPE [1, 8]: 7.31 % MPE
- % MPE [1, 11]: 15.62 % MPE
- % MPE [1, 12]: 54.26 % MPE
- % MPE ([1]; drug alone 750 mg/kg p.o., 2 hours): 67.95 % MPE
- % MPE ([1]; drug alone 1000 mg/kg p.o., 2 hours): 85.34 % MPE

SMILES: Nc1nnc(-c2cccc(Cl)c2Cl)c(N)n1 [Lamotrigine]
- ED50 ([1]; 2 h): 75.5 mg/kg
- % MPE [1, 13]: 5.48 % MPE
- % MPE [1, 4]: 21.95 % MPE
- % MPE [1, 6]: 48.69 % MPE
- % MPE [1, 9]: 75.09 % MPE
- % MPE [1, 10]: 83.51 % MPE

SMILES: NC(=O)OC[C@@H](O)c1ccccc1Cl [RWJ-333369, 1,2-ethanediol, 1-(2-chlorophenyl)-, 2-carbamate, (S)-]
- ED50 ([1]; 1 h): 77.4 mg/kg
- % MPE [1, 3]: 5.57 % MPE
- % MPE ([1]; drug alone 45 mg/kg p.o., 1 hour): 23.01 % MPE
- % MPE [1, 5]: 30.43 % MPE
- % MPE ([1]; drug alone 75 mg/kg p.o., 1 hour): 54.54 % MPE
- % MPE [1, 7]: 57.01 % MPE

SMILES: CC1(C)O[C@@H]2[C@@H](CO[C@@]3(COS(N)(=O)=O)OC(C)(C)O[C@@H]23)O1 [Topiramate, 2,3,4,5-bis-O-(1-methylethylidene)-β-D-fructopyranose sulfamates]
- ED50 ([1]; 2 h): 98 mg/kg
- % MPE [1, 13]: 11.54 % MPE
- % MPE [1, 4]: 26.58 % MPE
- % MPE [1, 8]: 56.42 % MPE
- % MPE [1, 11]: 76.51 % MPE
- % MPE [1, 12]: 94.38 % MPE
- % Maximal Possible Effect ([2]; drug alone 10 mg/kg p.o.): 0.82%
- % Maximal Possible Effect ([2]; drug alone 30 mg/kg p.o.): 9.71%
